ChEMBL document CHEMBL5046309, “Discovery of SHR5133, a Highly Potent and Novel HBV Capsid Assembly Modulator” (ACS Med Chem Lett, 2022)
Activity calls are given as the source filed them. The calls are words filed in the database; no cut-off is given here.

Tests used:
HepG2 2.2.15 = assay: Cytotoxicity against human HepG2.2.15 cells assessed as reduction in cell viability incubated for 72 hrs by cell titer-glo assay; type: functional
[1] = Half life in Sprague-Dawley rat at 2 mg/kg, po measured up to 24 hrs by LC-MS/MS analysis; type: ADME, organism-based; conditions: in vivo
[2] = Clearance in Sprague-Dawley rat at 1 mg/kg, iv measured up to 24 hrs by LC-MS/MS analysis; type: ADME, organism-based; conditions: in vivo
[3] = Cmax in Sprague-Dawley rat at 2 mg/kg, po measured up to 24 hrs by LC-MS/MS analysis; type: ADME, organism-based; design: route oral, dose 2 mg/kg, time <=24; conditions: in vivo
[4] = AUC(0 to 24 hrs) in Sprague-Dawley rat at 2 mg/kg, po measured up to 24 hrs by LC-MS/MS analysis; type: ADME, organism-based; design: route oral, dose 2 mg/kg, time <=24; conditions: in vivo
Hepatitis B virus [5] = assay: Antiviral activity against HBV infected in C57BL/6 mouse assessed as reduction on HBsAg level at 400 mg/kg,po BID for 28 days by ELISA; type: functional, organism-based; conditions: time 28.0 day
Hepatitis B virus [6] = assay: Antiviral activity against HBV infected in C57BL/6 mouse assessed as reduction on HBeAg level at 400 mg/kg,po BID for 28 days by ELISA; type: functional, organism-based; conditions: time 28.0 day
[7] = biological target: Core antigen (Hepatitis B virus) (UniProt Q03732); assay: Modulation of capsid assembly in HBV infected in human HepG2.2.15 cells assessed as maximal inhibition of viral DNA replication preincubated for 3 days followed by replacement with fresh medium containing compound and measured after 3 day by qPCR analysis; type: cell-based; conditions: filed as modulator, time 6.0 day
Core antigen (Hepatitis B virus), sequence (Q03732 as listed by the source): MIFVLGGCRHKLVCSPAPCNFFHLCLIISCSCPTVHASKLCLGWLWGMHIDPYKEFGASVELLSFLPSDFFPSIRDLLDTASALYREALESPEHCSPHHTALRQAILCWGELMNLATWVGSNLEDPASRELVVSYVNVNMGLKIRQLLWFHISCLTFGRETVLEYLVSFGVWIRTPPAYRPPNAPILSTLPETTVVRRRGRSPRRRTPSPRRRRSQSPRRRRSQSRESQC

## CC1CN(C(=O)Nc2ccc(F)c(C#N)c2)Cc2c(C(=O)N[C@H](C)C(F)(F)F)ncn21 (single isomer, unassigned)
HepG2 2.2.15
  CC50: > 100 µM

## Cc1cc(NC(=O)N2Cc3c(C(=O)N[C@H](C)C(F)(F)F)ncn3C[C@@H]2C)ccc1F
HepG2 2.2.15
  CC50: > 100 µM
[1]
  half-life: 3.87 h
[2]
  clearance: 26.6 mL/min/kg
[3]
  Cmax: 492 ng/mL
[4]
  AUC: 2.12 µg/mL/h

## O=C(Nc1cc(F)c(F)c(F)c1)c1ccc(F)c(S(=O)(=O)N2CCC(O)CC2)c1
Hepatitis B virus [5]
  Activity: inactive
Hepatitis B virus [6]
  Activity: inactive

## C[C@H](NC(=O)c1ncn2c1CN(C(=O)Nc1ccc(F)c(C#N)c1)[C@@H](C)C2)C(F)(F)F
HepG2 2.2.15
  Activity: inactive

## C[C@@H]1Cn2cnc(C(=O)N[C@H](C)C(F)(F)F)c2CN1C(=O)Nc1ccc(F)c(F)c1
HepG2 2.2.15
  CC50: > 100 µM

## C[C@H]1CN(C(=O)Nc2ccc(F)c(F)c2)Cc2c(C(=O)N[C@H](C)C(F)(F)F)ncn21
HepG2 2.2.15
  Activity: inactive
[7]
  Emax: 60%

## C[C@H]1Cn2cnc(C(=O)N[C@H](C)C(F)(F)F)c2CN1C(=O)Nc1cc(F)nc(F)c1
HepG2 2.2.15
  CC50: > 100 µM
